Test results published in patent US9289444B2, “Composition for promoting hematogenesis containing quercetin 3-O-β-(2″-galloyl)-rhamnopyranoside as active ingredient” (Chungbuk National University Industry Academic Cooperation …, priority 2011, dated 2016).

Experiments:
[1] = system: BMNCs; test: Cell viability assay (CCK-8), normoxia or hypoxia; type: cell-based, mouse
Excerpt: Bone marrow mononuclear cells (BMNCs) were isolated from femurs and tibias of 8 to 12-week-old male C57BL/6 mice by a previously described protocol [Kroeger K, Collins M, Ugozzoli (2009) The preparation of primary hematopoietic cell cultures from murine bone marrow for electroporation. J. Vis. Exp. 23: pii:1026. doi:10.3791/1026] and were separated from dead cells and red blood cells (RBCs) by Histopaque ([…]) (Sigma-Aldrich Chemical, St. Louis, Mo., USA) density gradient centrifugation. Thereafter, the cells were cultured in Iscove's modified Dulbecco's media (IMDM) with 15% heat inactivated fetal bovine serum (FBS), 1% bovine serum albumin (BSA), 100 units/ml penicillin and 100 μg/ml streptomycin at 37° C. in 5% CO2 humidified air. The separated blood was cultured as described previously [Oswald J, et al. (2004). Mesenchymal stem cells can be differentiated into endothelial cells in vitro. Stem Cells, 22: 377-384.] to obtain bone marrow stromal cells in α-minimum essential medium (MEM) with 20% heat inactivated FBS, 100 units/ml penicillin and 100 μg/ml streptomycin at 37° C. in 5% CO2 humidified air.
The possible cytotoxicity of QGR was examined in BMNCs. The cells were plated with a density of 5×10^3 cells/well in 96 well plates in 200 μl of medium. The cells cultured for 24 hrs with variable concentrations of QGR in either normoxia or hypoxia conditions were evaluated using a cell counting-8 assay kit (CCK-8) according to the manufacturer's instructions (Dojindo Molecular Technologies, Rockville, Md., USA). Briefly, 20 μl of CCK-8 solution was added to each well. The plates were incubated for 2 hrs in an incubator at 37° C. The resulting color was assayed at 450 nm using an EL808 microplate absorbance reader (BIO-TEK, Winooski, Vt., USA).

[2] = system: bone marrow failure mouse induced by busulphan (BU); test: Flow cytometric analysis of bone marrow cells in BU bone marrow failure model; type: in vivo, Balb/c mice
Procedure: (§1) Bone marrow failure model induced by administering busulphan (BU) was designed according to the procedures previously described by Molyneux et al (Cell Biol Toxicol 27, 13-40, 2011) and the scheme is shown in FIG. 8. BU (Sigma chemicals, Poole, Dorset, UK) was dissolved in acetone to a final concentration of 18.8 mg/ml, diluted five-fold with distilled water, and was intraperitoneally administered three times for 5 days with the dose of 0.2 ml BU solution per mouse. Equal amount of five-fold diluted acetone solution without BU was administered to vehicle control group. QGR was dissolved in dimethylsulfoxide and diluted with distilled water to a final concentration of 1.25%. Mice were orally administered every two days with QGR (0.25 mg/mouse) for 63 days. Seven or eight mice were sacrificed on days of 1, 5, 10, 16, 25, 40, 49, and 63 after BU administration and were investigated to confirm the effect of QGR to recover bone marrow failure.
In order to investigate whether QGR has an activity to recover bone marrow failure induced by BU administration, the expression of markers associated with hematopoietic stem cells/progenitors (Sca-1^+ or c-kit^+), bone mesenchymal stem/progenitor cells (Sca-1^+CD44^+), apoptotic hematopoietic stem cells (c-Kit^+7-aminoactinomycin D^+) were measured by flow cytometry. The retrieved BMNCs with the concentration of 0.6×10^6 cells/ml were precipitated by centrifugation, re-suspended in 100 μl of PBS containing 0.02% sodium azide and 2% FBS, and incubated with 10 μl of mouse anti-CD16/CD32 Ab (eBioScience, San Diego, Calif., USA) as FC receptor blocker for 3 min at room temperature. After that, monoclonal antibodies for c-kit (2B8, BD Pharmingen, USA), Sca-1 (D7, eBioscience), CD44 (IM7, eBioscience) were added and further incubated for 30 min under the temperature of 4° C. Isotype-matched irrelevant rat IgG2b-FITC (eBioscience) and isotype-matched irrelevant rat IgG2a-PE (eBioscience) were used as negative control. The flow cytometric analysis was carried out using FACS Calibur (Becton Dickinson, Oxnard, Calif., USA) and the percentage of positively stained cells was determined. The double staining of c-kit and 7-AAD (Calbiochem-Novabiochem, Nottingham, UK) was carried out according to the procedures previously described by Philpott et al (Exp Hematol, 23, 1642-1648, 1995).

[3] = system: bone marrow failure mouse induced by busulphan (BU); test: Semisolid colonogenic assay for BFU-E in BU bone marrow failure model; type: in vivo, Balb/c mice; settings: from 10 days to 63 days after QGR administration, vs positive control group
Procedure: as §1
In order to investigate whether QGR has an activity to promote the differentiation from hematopoietic stem cells to BFU-E namely an erythroid progenitor in the damaged bone marrow induced by BU administration, the semisolid colonogenic assay was carried out. […] 14 days later, the number of BFU-E colony was counted.

[4] = system: bone marrow failure mouse induced by busulphan (BU); test: Histopathological features of bone marrow and osteoid formation in BU bone marrow failure model; type: in vivo, Balb/c mice
Procedure: as §1
In order to confirm histological bone marrow damage induced by BU administration and to investigate whether QGR recovers the damaged bone marrow, histopathological features of H&E staining slide of the respective group's bone marrow were observed and compared to each other among the groups. In addition, the degree of sinusoid damage in bone marrow was graded as normal, hemorrhage or discontinuous, regressed vessel, assigned with numerical value and compared to each other among the groups. Moreover, in order to investigate the effect of QGR on the differentiation and maturation from mesenchymal stem cells to osteoblast, the formation of osteoid in humerus was comparatively analyzed. Goldner's trichrome staining was carried for osteoid and the stained area of the respective group was compared with each other after determining the stained area by using an image analyzer.

[5] = system: lipopolysaccharide (LPS)-stimulated RAW 264.7 macrophage cells; settings: cited from earlier work
[6] = system: LPS-induced Balb/c mice; settings: cited from earlier work

What does the source list for CC1OC(Oc2c(-c3ccc(O)c(O)c3)oc3cc(O)cc(O)c3c2=O)C(OC(=O)c2cc(O)c(O)c(O)c2)C(O)C1O (stereo not drawn) [QGR, quercetin 3-O-β-(2″-galloyl)-rhamnopyranoside]?
cell viability ([1]; 50 μM, 24 hrs): significantly increased cell viability; cytotoxicity ([1]; BMNCs, 24 hrs, various concentrations): not cytotoxic; cell viability after hypoxic damage ([1]; QGR post-treatment 200 μM, hypoxic damage for 24 hrs): increased cell viability; viable cells under hypoxic damage ([1]; QGR pretreatment, hypoxic damage 24 hrs, vs untreated group, dose-dependent): increased the viable cells; number of cells positive for Sca-1 (HSPCs) ([2]; after 10 days of QGR administration, vs positive control group): increased; number of c-kit positive cells (HSPCs) ([2]; at 10 days after QGR administration, significant difference from positive control at 16 days): increased; number of MSPCs (CD44+Sca-1+ cells) ([2]; time course, remarkably decreased in positive control group): no change; number of apoptotic HSPCs ([2]; time course, significantly increased from 10 days in positive control group): no change; number of BFU-E [3]: increased significantly and consistently; degree of osteoid formation ([4]; Goldner's trichrome staining, vs positive control group): actively formed; number of cells in bone marrow of humerus (cellularity) ([4]; H&E, vs positive control group): recovered; number of regressed sinusoid ([4]; day 10): significantly decreased; number of normal sinusoid ([4]; day 10, vs positive control group (BU)): greater; number of normal sinusoids ([4]; day 63): increased; numbers of hemorrhagic sinusoids ([4]; day 63): significantly decreased; numbers of regressed sinusoids ([4]; day 63): significantly decreased; area of osteoid formation ([4]; from day 10 after QGR administration, vs positive control group): increased significantly; number of megakaryocytes surrounding sinusoid ([4]; from day 16 after QGR administration, vs positive control group): increased; sinusoidal endothelia in the bone marrow ([4]; vs severely damaged sinusoids in positive control group): recovered sinosoids; nitric oxide production [5]: inhibiting; nitric oxide production [6]: inhibiting
